How the values were obtained:
EPHB1 = molecular target: T1, EPHB1 (Homo sapiens, UniProt P54762); test: Kinobeads competition binding: EPHB1; settings: target EPHB1
T1 construct: endogenous in cells
T1 sequence (P54762 18-984): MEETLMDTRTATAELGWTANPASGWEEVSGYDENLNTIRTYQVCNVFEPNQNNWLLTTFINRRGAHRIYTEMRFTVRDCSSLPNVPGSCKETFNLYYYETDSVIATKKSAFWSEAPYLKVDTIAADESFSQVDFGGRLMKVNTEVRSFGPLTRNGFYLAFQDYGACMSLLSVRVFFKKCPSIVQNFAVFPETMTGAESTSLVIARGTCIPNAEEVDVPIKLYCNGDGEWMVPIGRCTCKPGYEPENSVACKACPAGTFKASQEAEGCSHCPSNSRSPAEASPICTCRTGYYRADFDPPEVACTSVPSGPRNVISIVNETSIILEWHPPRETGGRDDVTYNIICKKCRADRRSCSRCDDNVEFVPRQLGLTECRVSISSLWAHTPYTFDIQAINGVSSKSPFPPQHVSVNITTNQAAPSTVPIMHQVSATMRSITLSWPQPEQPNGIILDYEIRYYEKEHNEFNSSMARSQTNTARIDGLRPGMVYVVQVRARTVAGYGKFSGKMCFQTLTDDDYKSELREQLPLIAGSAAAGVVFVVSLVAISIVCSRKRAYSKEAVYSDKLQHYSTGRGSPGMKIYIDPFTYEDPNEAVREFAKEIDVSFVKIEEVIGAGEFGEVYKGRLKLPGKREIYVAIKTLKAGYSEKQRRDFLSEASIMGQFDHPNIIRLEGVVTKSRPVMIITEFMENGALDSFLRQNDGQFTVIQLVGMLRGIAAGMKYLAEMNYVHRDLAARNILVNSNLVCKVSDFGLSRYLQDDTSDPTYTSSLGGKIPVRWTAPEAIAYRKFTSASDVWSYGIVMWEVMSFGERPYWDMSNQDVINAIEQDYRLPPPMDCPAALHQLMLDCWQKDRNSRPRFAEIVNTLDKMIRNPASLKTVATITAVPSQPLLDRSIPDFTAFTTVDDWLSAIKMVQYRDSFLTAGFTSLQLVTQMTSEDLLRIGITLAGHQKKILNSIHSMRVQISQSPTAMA
From the text: Supplement 41589_2023_1459_MOESM4_ESM.xlsx, sheet "CATDS matrix" | column: EPHB1

MAPK9 = test: Kinobeads competition binding: MAPK9; set-up: species or system human; settings: target MAPK9
GSPT1;GSPT2 = test: Kinobeads competition binding: GSPT1;GSPT2; set-up: species or system human; settings: target GSPT1;GSPT2
ICK = test: Kinobeads competition binding: ICK; set-up: species or system human; settings: target ICK
NTRK1 = molecular target: T2, NTRK1 (Homo sapiens, UniProt P04629); test: Kinobeads competition binding: NTRK1; settings: target NTRK1
T2 construct: endogenous in cells

MERTK = test: Kinobeads competition binding: MERTK; set-up: species or system human; settings: target MERTK
ABL1 = ABL1 (Homo sapiens, UniProt P00519); test: Kinobeads competition binding: ABL1; settings: target ABL1;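 also: selectivity score: engagement of this protein divided by summed engagement of all targets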
From the text: Supplement 41589_2023_1459_MOESM4_ESM.xlsx, sheet "CATDS matrix" | column: ABL1

EPHB4 = molecular target: T3, EPHB4 (Homo sapiens, UniProt P54760); test: Kinobeads competition binding: EPHB4; settings: target EPHB4
T3 construct: endogenous in cells
T3 sequence (P54760 16-987): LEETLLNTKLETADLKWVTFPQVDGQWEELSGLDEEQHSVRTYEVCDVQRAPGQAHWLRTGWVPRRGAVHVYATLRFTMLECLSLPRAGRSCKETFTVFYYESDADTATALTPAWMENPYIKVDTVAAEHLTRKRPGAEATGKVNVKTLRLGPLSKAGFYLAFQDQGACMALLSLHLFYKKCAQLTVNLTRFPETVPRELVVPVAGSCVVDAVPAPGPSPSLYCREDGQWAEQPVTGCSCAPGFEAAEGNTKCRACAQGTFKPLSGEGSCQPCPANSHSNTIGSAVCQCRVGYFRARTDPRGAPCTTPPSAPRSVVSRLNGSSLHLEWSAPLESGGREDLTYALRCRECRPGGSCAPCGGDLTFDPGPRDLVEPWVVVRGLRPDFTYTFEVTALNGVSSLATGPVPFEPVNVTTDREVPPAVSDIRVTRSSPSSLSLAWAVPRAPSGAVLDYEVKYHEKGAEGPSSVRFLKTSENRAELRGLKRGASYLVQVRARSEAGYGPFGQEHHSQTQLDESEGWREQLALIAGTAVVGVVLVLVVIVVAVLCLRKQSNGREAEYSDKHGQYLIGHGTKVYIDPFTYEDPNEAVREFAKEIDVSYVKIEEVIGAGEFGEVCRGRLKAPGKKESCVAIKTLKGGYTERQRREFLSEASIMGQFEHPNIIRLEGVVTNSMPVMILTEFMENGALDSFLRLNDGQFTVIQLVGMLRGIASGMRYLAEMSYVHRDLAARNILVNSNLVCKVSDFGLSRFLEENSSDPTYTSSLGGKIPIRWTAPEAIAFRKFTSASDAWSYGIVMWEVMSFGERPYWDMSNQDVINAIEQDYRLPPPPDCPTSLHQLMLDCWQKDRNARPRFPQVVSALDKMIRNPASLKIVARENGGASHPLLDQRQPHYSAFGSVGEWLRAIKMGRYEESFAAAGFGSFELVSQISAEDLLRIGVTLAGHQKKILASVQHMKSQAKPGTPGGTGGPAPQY

NNT = test: Kinobeads competition binding: NNT; set-up: species or system human; settings: target NNT;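 also: share of total target engagement due to this protein at one drug concentration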
HSP90AA1 = test: Kinobeads competition binding: HSP90AA1; set-up: species or system human; settings: target HSP90AA1;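 also: share of total target engagement due to this protein at one drug concentration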
CDC42 = test: Kinobeads competition binding: CDC42; set-up: species or system human; settings: target CDC42
MAPK7 = test: Kinobeads competition binding: MAPK7; set-up: species or system human; settings: target MAPK7
PAK4 = molecular target: T4, PAK4 (Homo sapiens, UniProt O96013); test: Kinobeads competition binding: PAK4; settings: target PAK4
T4 construct: a mixture of lysates from five cancer cell lines; endogenous in cells
From the text: Supplement 41589_2023_1459_MOESM4_ESM.xlsx, sheet "CATDS matrix" | column: PAK4

CAMK2D = molecular target: T5, CAMK2D (Homo sapiens, UniProt Q13557); test: Kinobeads competition binding: CAMK2D; settings: target CAMK2D;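 also: selectivity score: engagement of this protein divided by summed engagement of all targets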
T5 construct: endogenous in cells
From the text: Supplement 41589_2023_1459_MOESM4_ESM.xlsx, sheet "CATDS matrix" | column: CAMK2D

T2 sequence (P04629 33-796): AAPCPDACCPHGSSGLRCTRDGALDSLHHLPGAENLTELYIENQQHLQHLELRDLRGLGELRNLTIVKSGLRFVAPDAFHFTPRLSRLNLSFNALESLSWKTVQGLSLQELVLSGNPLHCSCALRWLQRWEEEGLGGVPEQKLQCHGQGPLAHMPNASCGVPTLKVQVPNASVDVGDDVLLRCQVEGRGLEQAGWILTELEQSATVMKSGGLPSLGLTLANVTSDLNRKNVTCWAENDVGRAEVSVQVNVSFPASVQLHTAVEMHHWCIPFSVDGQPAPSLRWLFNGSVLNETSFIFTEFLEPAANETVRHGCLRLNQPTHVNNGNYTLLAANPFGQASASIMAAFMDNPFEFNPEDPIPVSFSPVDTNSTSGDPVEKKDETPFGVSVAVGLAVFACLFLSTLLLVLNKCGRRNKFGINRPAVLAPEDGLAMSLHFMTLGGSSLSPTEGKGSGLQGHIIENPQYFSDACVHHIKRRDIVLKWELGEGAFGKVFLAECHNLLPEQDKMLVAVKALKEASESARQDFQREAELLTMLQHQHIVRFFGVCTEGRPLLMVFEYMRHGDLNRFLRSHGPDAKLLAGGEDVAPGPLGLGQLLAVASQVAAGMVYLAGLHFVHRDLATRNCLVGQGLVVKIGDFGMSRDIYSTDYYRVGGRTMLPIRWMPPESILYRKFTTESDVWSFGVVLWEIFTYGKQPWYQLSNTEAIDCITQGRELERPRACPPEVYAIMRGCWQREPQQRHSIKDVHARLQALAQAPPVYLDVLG
T5 sequence (Q13557 whole entry): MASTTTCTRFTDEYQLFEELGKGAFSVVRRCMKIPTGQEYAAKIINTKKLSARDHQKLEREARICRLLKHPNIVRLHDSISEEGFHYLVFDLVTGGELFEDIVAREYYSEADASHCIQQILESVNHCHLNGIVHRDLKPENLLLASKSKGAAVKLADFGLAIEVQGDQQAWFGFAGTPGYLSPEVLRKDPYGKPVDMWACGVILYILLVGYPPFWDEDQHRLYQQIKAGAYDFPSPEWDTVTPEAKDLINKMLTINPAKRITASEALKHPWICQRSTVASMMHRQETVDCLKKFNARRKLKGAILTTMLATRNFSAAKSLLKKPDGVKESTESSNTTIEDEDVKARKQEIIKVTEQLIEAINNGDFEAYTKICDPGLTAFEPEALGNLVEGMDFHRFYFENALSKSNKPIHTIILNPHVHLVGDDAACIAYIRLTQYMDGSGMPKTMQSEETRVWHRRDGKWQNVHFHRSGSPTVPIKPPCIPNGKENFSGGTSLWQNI
ABL1, sequence (P00519 28-1130 limits assumed): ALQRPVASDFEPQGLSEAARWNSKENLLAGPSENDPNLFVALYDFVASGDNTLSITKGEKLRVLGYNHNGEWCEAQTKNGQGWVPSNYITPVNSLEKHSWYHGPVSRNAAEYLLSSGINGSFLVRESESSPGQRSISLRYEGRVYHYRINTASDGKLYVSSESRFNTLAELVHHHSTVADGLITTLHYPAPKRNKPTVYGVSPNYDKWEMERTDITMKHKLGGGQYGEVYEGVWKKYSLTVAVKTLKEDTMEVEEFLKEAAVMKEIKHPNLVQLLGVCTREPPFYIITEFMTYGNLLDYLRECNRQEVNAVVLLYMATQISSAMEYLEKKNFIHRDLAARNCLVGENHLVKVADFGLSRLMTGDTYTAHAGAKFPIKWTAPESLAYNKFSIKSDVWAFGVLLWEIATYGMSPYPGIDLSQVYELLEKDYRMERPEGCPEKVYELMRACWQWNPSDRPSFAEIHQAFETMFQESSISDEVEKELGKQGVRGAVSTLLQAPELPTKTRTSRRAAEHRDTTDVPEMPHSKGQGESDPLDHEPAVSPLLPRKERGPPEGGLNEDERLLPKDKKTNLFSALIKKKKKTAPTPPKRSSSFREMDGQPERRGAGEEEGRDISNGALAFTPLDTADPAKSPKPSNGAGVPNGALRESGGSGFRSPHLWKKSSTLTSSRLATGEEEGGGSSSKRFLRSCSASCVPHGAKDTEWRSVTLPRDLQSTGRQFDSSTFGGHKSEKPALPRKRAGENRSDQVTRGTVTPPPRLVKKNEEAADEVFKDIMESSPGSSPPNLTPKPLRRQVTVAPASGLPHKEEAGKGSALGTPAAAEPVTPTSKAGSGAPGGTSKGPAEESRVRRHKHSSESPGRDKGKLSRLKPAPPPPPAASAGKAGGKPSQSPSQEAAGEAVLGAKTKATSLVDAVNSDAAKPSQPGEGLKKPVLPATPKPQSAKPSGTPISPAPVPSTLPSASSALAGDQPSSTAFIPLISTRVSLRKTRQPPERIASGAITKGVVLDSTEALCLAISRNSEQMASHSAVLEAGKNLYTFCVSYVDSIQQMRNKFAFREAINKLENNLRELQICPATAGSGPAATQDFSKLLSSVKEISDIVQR
T4 sequence (O96013 whole entry): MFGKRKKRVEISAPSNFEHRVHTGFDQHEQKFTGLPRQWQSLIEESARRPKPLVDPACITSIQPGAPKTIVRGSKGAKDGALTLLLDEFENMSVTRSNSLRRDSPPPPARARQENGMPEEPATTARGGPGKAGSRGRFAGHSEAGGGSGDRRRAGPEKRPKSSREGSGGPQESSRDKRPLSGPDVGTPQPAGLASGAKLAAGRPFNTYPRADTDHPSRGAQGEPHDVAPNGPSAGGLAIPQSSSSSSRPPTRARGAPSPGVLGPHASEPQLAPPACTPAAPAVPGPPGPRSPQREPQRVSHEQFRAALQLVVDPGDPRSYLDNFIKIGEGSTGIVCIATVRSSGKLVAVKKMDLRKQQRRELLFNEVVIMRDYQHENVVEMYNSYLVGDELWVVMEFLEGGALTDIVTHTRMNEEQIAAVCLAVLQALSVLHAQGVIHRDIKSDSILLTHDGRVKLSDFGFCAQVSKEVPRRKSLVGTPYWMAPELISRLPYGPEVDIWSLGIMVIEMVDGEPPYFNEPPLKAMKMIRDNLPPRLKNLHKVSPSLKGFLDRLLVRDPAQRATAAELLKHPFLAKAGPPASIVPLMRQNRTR

Row | Structure (SMILES) | CATDS (EPHB1) | CATDS (MAPK9) | CATDS (GSPT1;GSPT2) | CATDS (ICK) | CATDS (NTRK1) | CATDS (MERTK) | CATDS (ABL1) | CATDS (EPHB4) | CATDS (NNT) | CATDS (HSP90AA1) | CATDS (CDC42) | CATDS (MAPK7) | CATDS (PAK4) | CATDS (CAMK2D)
1 | CCN1CCN(Cc2ccc(Nc3ncc(F)c(-c4cc(F)c5nc(C)n(C(C)C)c5c4)n3)nc2)CC1 [Abemaciclib] | 0 | 0 | 0 | 0 | 0 | 0 | 0 | 0 | 0 | 0 | 0 | 0 | 0 | 0.08654
2 | CN(C)C/C=C/C(=O)Nc1cc2c(Nc3ccc(F)c(Cl)c3)ncnc2cc1O[C@H]1CCOC1 [Afatinib] | 0 | – | – | – | – | – | 0 | – | 0 | 0 | 0 | – | 0 | 0
3 | CCc1cc2c(cc1N1CCC(N3CCOCC3)CC1)C(C)(C)c1[nH]c3cc(C#N)ccc3c1C2=O [Alectinib] | 0 | 0 | 0 | 0 | 0 | 0 | 0 | 0 | 0 | 0 | 0 | 0 | 0 | 0
4 | Nc1ncnc2[nH]c(-c3ccccc3)nc12 [AH5015_KCGS] | 0 | 0 | 0 | 0 | 0 | 0 | 0 | 0.03489 | 0 | 0 | 0 | 0 | 0 | 0
5 | N#CC1(c2ccc(NC(=O)c3cccnc3NCc3ccncc3)cc2)CCCC1 [Apatinib] | 0 | 0 | 0 | 0 | 0 | 0 | 0 | 0 | 0 | 0 | 0 | 0 | 0 | 0

— publication PMC11062922 (Nature Chemical Biology, 2023)
